Measured values from US20080207669A1, “(S)-N-Stereoisomers of 7,8-Saturated-4,5-Epoxy-Morphinanium Analogs” (Progenics Pharmaceuticals, Inc., priority 2006, published 2008).
pEC50: −log10 of the molar value.

Experiments:
[1] = target: T1, μ-opioid receptors in the guinea pig ileum (Cavia porcellus, UniProt A0ACM8Q262); test: Field-stimulated guinea pig ileum, evaluation of agonist activity; conditions: for activation at 1 µM: 1.0E-06 M; for activation at 0.1 µM: 1.0E-07 M; for activation at 0.01 µM: 1.0E-08 M; for activation at 100 µM: 1.0E-04 M; for activation at 10 µM: 1.0E-05 M; for activation at 30 µM: 3.0E-05 M; for activation at 3 µM: 3.0E-06 M; for activation at 0.3 µM: 3.0E-07 M; for activation at 0.03 µM: 3.0E-08 M; for Response to compound + Naloxone, percent of the control response to DAMGO: compound 1.0E-04 M + Naloxone 1.0E-07 M
Protocol: (§1) In Vitro Pharmacology of (S)-7,8-saturated-4,5α-epoxy-morphinaniums on μ receptor. Mμ-receptor agonist/antagonist activity may be adjudged by use of field-stimulated guinea pig ileum by methods known in the art. For example, segments of guinea pig terminal ileum may be suspended in 20-ml organ baths filled with an oxygenated (95% O2 and 5% CO2) and pre-warmed (37° C.) physiological salt solution of the following composition (in mM): NaCl 118.0, KCl 4.7, MgSO4 1.2, CaCl2 2.5, KH2PO4 1.2, NaHCO3 25.0 and glucose 11.0 (pH 7.4). Additional experimental conditions that may be followed are described in Hutchinson et al. (1975) Brit. J. Pharmacol., 55:541-546.
(§2) Indomethacin (1 μM), nor-binaltorphimine (0.01 μM), methysergide (1 μM), ondansetron (10 μM) and GR113808 (0.1 μM) may be also present throughout an experiment to prevent prostanoid release and to block the k-opioid, 5-HT2, 5-HT3 and 5-HT4 receptors, respectively. The tissues in such tests are typically connected to force transducers for isometric tension recordings. The tissue may be stretched to a resting tension, for example, of 1 g then allowed to equilibrate, for example, about 60 min during which time they may be washed repeatedly and the tension readjusted. Electrical stimulation with pulses of minimal intensity to trigger maximal contractions and a short duration, for example, 1 ms duration, delivered by a constant current stimulator at a frequency such a 0.1 Hz.
Exemplar Test for Agonist Activity. The tissues may be exposed to a submaximal concentration of the reference agonist DAMGO (0.1 μM) to verify responsiveness and to obtain a control response. Following extensive washings and recovery of the control twitch contractions, the tissues may be exposed to increasing concentrations of the (S)-7,8-saturated-4,5-epoxy-morphinanium or the same agonist. The different concentrations may be added cumulatively and each left in contact with the tissues until a stable response is obtained or for a maximum of 15 min.

μ receptors = μ receptors (Homo sapiens, UniProt P35372); test: Opiate receptor radioligand binding, competition with diprenorphine, naltrexone control; conditions: compared to naltrexone control; test concentration not given
Source text: Opiate Receptor Binding of (S)-7,8-saturated-4,5α-epoxy-morphinaniums. Radioligand binding assays may be conducted to determine the binding specificity of an (S)-7,8-saturated-4,5-epoxy-morphinanium for μ-, κ-, and δ-opiate receptors using methods adapted from scientific literature (Simonin, F et al 1994, Mol. Pharmacol. 46:1015-1021; Maguire, P. et al 1992, Eur. J. Pharmacol. 213:219-225; Simonin, F. et al PNAS USA 92(15):1431-1437; Wang, J B 1994, FEBS Lett 338:217-222). For example, a membrane may be associated with human opioid receptor material. Diprenorphine which has an affinity for all […] opioid receptors, can be used as a competitive challenge to the test compound. Membranes can then be separated, and the binding of the test compounds to the receptor material can be determined by scintillation counting. A control, such as naltrexone, can be used to determine relative binding affinity.

[2] = target: T1, μ-opioid receptors in the guinea pig ileum; test: Field-stimulated guinea pig ileum, evaluation of antagonist activity against DAMGO; conditions: for remaining activity at 100 µM / remaining activity at 10 µM / remaining activity at 1 µM / remaining activity at 0.1 µM / remaining activity at 0.01 µM / remaining activity at 30 µM / remaining activity at 3 µM / remaining activity at 0.3 µM / remaining activity at 0.03 µM: guinea pig, mean, n=2, read-out: Response to DAMGO (1.0E-07 M) in the presence of the compound, percent of the control response to DAMGO; for remaining activity at 100 µM: compound 1.0E-04 M; for remaining activity at 10 µM: compound 1.0E-05 M; for remaining activity at 1 µM: compound 1.0E-06 M; for remaining activity at 0.1 µM: compound 1.0E-07 M; for remaining activity at 0.01 µM: compound 1.0E-08 M; for remaining activity at 30 µM: compound 3.0E-05 M; for remaining activity at 3 µM: compound 3.0E-06 M; for remaining activity at 0.3 µM: compound 3.0E-07 M; for remaining activity at 0.03 µM: compound 3.0E-08 M; for Antagonist activity IC50 value: inhibition of the response to DAMGO, guinea pig ileum
Protocol: as §1, §2
Exemplary Test for Antagonist Activity. The tissues may be exposed to a submaximal concentration of the reference agonist DAMGO (0.1 μM) to obtain a control response. […] Each concentration may be left in contact with the tissues until a stable response is obtained or for a maximum time, such as 15 min. The maximum change in the amplitude of the electrically-evoked twitch contractions induced by each compound concentration may be measured. […] The EC50 value (concentration producing a half-maximum response) or IC50 value (concentration causing a half-maximum inhibition of the response to DAMGO) may be determined by linear regression analysis of the concentration-response curves. Inhibition of the DAMGO-induced response by the (S)-7,8-saturated-4,5-epoxy-morphinanium may indicate an antagonist activity at the μ receptors.

[3] = mean, n=2, read-out: Response to compound (decrease in twitch contraction amplitude), percent of the control response to DAMGO

T1 sequence (A0ACM8Q262 1-400): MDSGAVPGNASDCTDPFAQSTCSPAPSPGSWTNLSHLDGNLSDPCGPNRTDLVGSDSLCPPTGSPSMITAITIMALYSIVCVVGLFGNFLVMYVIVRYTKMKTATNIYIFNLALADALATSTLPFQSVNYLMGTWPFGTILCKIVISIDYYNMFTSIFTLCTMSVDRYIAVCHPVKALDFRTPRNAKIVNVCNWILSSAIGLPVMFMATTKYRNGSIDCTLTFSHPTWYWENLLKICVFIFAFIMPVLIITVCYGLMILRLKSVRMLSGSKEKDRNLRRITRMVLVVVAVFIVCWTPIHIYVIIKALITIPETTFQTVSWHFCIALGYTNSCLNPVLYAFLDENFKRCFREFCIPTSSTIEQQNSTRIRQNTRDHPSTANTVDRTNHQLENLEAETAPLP
Sequence of μ receptors (P35372 whole entry): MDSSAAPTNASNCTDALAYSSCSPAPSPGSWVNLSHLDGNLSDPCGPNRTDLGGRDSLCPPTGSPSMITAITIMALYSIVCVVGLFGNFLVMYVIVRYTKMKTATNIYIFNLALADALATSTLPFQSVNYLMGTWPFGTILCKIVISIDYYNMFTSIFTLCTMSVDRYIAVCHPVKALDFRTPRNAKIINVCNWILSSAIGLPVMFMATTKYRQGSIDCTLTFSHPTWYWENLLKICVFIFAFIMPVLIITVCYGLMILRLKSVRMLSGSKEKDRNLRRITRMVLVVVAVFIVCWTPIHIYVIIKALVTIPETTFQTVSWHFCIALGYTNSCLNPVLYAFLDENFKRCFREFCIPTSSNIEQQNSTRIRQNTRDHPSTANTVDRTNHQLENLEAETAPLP

SMILES | activation at 1 µM [1, 3] | activation at 0.1 µM [1, 3] | activation at 0.01 µM [1, 3] | inhibition of control specific binding at the μ receptor (μ receptors) | activation at 100 µM [1, 3] | activation at 10 µM [1, 3] | activation at 30 µM [1, 3] | activation at 3 µM [1, 3] | activation at 0.3 µM [1, 3] | activation at 0.03 µM [1, 3] | Response to compound + Naloxone, percent of the control response to DAMGO ([1]; mean, n=2) | remaining activity at 100 µM [2] | remaining activity at 10 µM [2] | remaining activity at 1 µM [2] | remaining activity at 0.1 µM [2] | remaining activity at 0.01 µM [2] | remaining activity at 30 µM [2] | remaining activity at 3 µM [2] | remaining activity at 0.3 µM [2] | remaining activity at 0.03 µM [2] | also measured
C[C@@H](NC(=O)[C@@H](N)Cc1ccc(O)cc1)C(=O)NCC(=O)N(C)[C@@H](Cc1ccccc1)C(=O)NCCO [DAMGO, reference compound] | 103% | 96% | 57% |  |  |  |  |  |  |  |  |  |  |  |  |  |  |  |  |  | activation at 0.001 µM ([1]; 1.0E-09 M, mean, n=2, read-out: Response to compound (decrease in twitch contraction amplitude), percent of the control response to DAMGO): 9%; Response to DAMGO + Naloxone, percent of the control response to DAMGO ([1]; highest DAMGO concentration + Naloxone 1.0E-07 M, mean, n=2): 4%
C[N+]1(CC#Cc2ccccc2)CC[C@]23c4c5ccc(O)c4O[C@H]2C(=O)CC[C@@]3(O)[C@H]1C5 (stereo partly drawn) [(S)-PM] | 25% | 6% | 0% | 80% | 89% | 53% | 71% | 38% | 12% | 0% | 30% | 110% | 100% | 100% | 100% | 100% | 100% | 100% | 100% | 100% | Antagonist activity IC50 value [2]: No antagonist activity
C=CC[N+]1(CC2CC2)CC[C@]23c4c5ccc(O)c4O[C@H]2C(=O)CC[C@@]3(O)[C@H]1C5 (stereo partly drawn) [(S)-17-Allyl-17-cyclopropylmethyl-4,5α-epoxy-3,14-di-hydroxy-6-oxomorphinanium Iodide] |  |  |  | 68% |  |  |  |  |  |  |  |  |  |  |  |  |  |  |  |  | 
CC(C)=CC[N+]1(C)CC[C@]23c4c5ccc(O)c4O[C@H]2C(=O)CC[C@@]3(O)[C@H]1C5.[I-] (stereo partly drawn) [(S)-DMAM, (S)-17-(3,3-dimethylallyl)-4,5α-epoxy-3,14-di-hydroxy-17-methyl-6-oxomorphinanium iodide] |  | 8% | 0% |  | 101% | 93% | 99% | 77% | 19% | 0% | 77% | 113% | 110% | 101% | 100% | 100% | 113% | 105% | 100% | 100% | pEC50 ([1]; read-out: Agonist activity EC50 value, concentration producing a half-maximum response, guinea pig ileum): 5.89; Antagonist activity IC50 value [2]: No antagonist activity
CC(C)=CC[N+]1(C)CC[C@]23c4c5ccc(O)c4O[C@H]2C(=O)CC[C@@]3(O)[C@H]1C5.[I-] (stereo partly drawn) [(S)-17-(3,3-dimethylallyl)-4,5α-epoxy-3,14-di-hydroxy-17-methyl-6-oxomorphinanium iodide] |  |  |  | 65% |  |  |  |  |  |  |  |  |  |  |  |  |  |  |  |  | 
